From ChEMBL document CHEMBL1150708, “Isolation and bioactivity of new tanshinones” (1987) come the findings set out here.

In general, inhibition refers to the change of the read-out against control, counted positive when it falls.

Assay type in all cases: functional
A short description of experiment [1]: Antiplatelet activity against platelet assessed as inhibition of collagen-induced platelet aggregation at 50 ug/ml by turbidimetry.
Experiment [2] in a line: Antiplatelet activity against platelet assessed as inhibition of ADP-induced platelet aggregation at 50 ug/ml by turbidimetry.
Experiment [3] can be described thus: Antiplatelet activity against platelet assessed as inhibition of ADP-induced platelet aggregation at 10 ug/ml by turbidimetry.
Experiment [4] is described as follows: Antiplatelet activity against platelet assessed as inhibition of collagen-induced platelet aggregation at 10 ug/ml by turbidimetry.
Experiment [5] is described as follows: Antiplatelet activity against platelet assessed as inhibition of collagen-induced platelet aggregation at 5 ug/ml by turbidimetry.

Consider `CC(=O)Oc1ccccc1C(=O)O` [ASPIRIN], for which the inhibition at 50 µg/mL turned out to be 72% in experiment [1] and 74% in experiment [2].
With `Cc1coc2c1C(=O)c1ccc3c(c1C2=O)CCCC3(C)CO` (stereo not given) [ISOTANSHINONE IIB], the results for the inhibition at 10 µg/mL in experiment [3] and in experiment [4] were 40% and 81%, respectively. The inhibition at 5 µg/mL in experiment [5] is 4%.
